{"source": "patent US20100028298A1", "about": "(priority 2006, published 2010)", "key": {"[1]": {"system": "interferon alpha activity in MXRage cells", "experiment": "Cell-based virus-free type I interferon activity test, Mx-RAGE fibroblasts with eGFP reporter, flow cytometry, with interferon alpha", "set-up": "species or system murine"}, "[2]": {"system": "Herpes simplex virus strain 1 (HSV-1, dsDNA)", "experiment": "Antiviral effect on HSV-1, cytopathic effect on Vero cells", "assay_type": "cell-based", "conditions": "Vero cells infected with 10^4 PFU/ml HSV-1, different concentrations of vioprolide A alone, FIG. 6"}, "[3]": {"system": "Vesicular stomalitis virus (VSV, ssRNA negative)", "assay_type": "cell-based", "conditions": "MDBK cells, rhIFN-α2b alone and with 31 and 167 ng/ml vioprolide A, FIG. 5"}, "[4]": {"system": "interferon beta activity in MXRage cells", "experiment": "Cell-based virus-free type I interferon activity test, Mx-RAGE fibroblasts with eGFP reporter, flow cytometry, with interferon beta", "set-up": "species or system murine", "conditions": "interferon beta standard curve, vioprolide A 50 ng/ml, FIG. 4 right panel"}, "[5]": {"system": "human cervical carcinoma derived cell line WISH", "experiment": "Antiproliferative activity on WISH cells", "assay_type": "cell-based", "conditions": "in the presence of rhIFN-α2b, FIG. 7", "protocol": "FIG. 7: The antiproliferative effect of vioprolide A. The proliferation of WISH cells was tested at different concentrations of vioprolide A alone (grey) and in the present of IFN-α2b (black).\nFurther, the antiproliferative effect of vioprolide A has been determined. Using standard assays, the antiproliferative activity was evaluated with human cervical carcinoma derived cell line WISH."}}, "note": "Numbered stars: 1 amine (or outer) side, 2 acyl side, 3 side chain; on linkers, the order of the positions; unused ones are H or OH. Bridge positions count the residues as written; N and C are the ends. Square brackets hold non-standard residues; d marks the D form. Peptide text beside a SMILES is read from it. X1 = CC1CC(C2=NC(C(=O)[*:2])CS2)N1[*:1]; NMeV = CN[CH](C(=O)O)C(C)C; X2 = O=C(C(O)CO[*:2])[*:1]; Pip = O=C(O)[CH]1CCCCN1; Dhb = C/C=C(\\N)C(=O)O", "data": [{"smiles": "C/C=C1\\NC(=O)C2CSC(=N2)C2CC(C)N2C(=O)C(CC(C)C)NC(=O)C(C)NC(=O)C(O)COC(=O)C(C(C)C)N(C)C(=O)C(C(C)O)NC(=O)C2CCCCN2C1=O", "note": "(stereo not shown) [vioprolide A] (AL[X1][Dhb][Pip]T[NMeV]; linker N-C via X2; configuration not given here)", "values": [{"measurement": "increase of GFP positive cells", "setting": "[1]; interferon alpha standard curve, vioprolide A 50 ng/ml, FIG. 4 left panel", "value": "remarkable increase"}, {"measurement": "reduction of the amount of interferon alpha to obtain the same percent of GFP positive cells", "setting": "[1]; vioprolide A 50 ng/ml, FIG. 4 left panel", "value": "about 10 fold"}, {"measurement": "increase of GFP positive cells with vioprolide plus interferon type I compared to interferon type I alone", "setting": "[1]; vioprolide A 0.2 to 400 ng/ml, serial two-fold dilutions, FIG. 3", "value": "≤ 4", "unit": "fold"}, {"measurement": "anti-viral activity on HSV-1 (cytopathic effect)", "setting": "[2]", "value": "anti-viral activity"}, {"measurement": "anti-viral activity of IFN on VSV (cytopathic effect)", "setting": "[3]", "value": "able to enhance the anti-viral activity of IFN on VSV"}, {"measurement": "increase of GFP positive cells", "setting": "[4]", "value": "remarkable increase"}, {"measurement": "effect on cell growth inhibition", "setting": "[5]", "value": "additive effect"}]}]}
